The target of the assay is PIK3CA (human) (UniProt P42336). Description: Inhibition of PIK3CA Kinase Activity.
Sequence of PIK3CA (human) (P42336 whole entry, looked up): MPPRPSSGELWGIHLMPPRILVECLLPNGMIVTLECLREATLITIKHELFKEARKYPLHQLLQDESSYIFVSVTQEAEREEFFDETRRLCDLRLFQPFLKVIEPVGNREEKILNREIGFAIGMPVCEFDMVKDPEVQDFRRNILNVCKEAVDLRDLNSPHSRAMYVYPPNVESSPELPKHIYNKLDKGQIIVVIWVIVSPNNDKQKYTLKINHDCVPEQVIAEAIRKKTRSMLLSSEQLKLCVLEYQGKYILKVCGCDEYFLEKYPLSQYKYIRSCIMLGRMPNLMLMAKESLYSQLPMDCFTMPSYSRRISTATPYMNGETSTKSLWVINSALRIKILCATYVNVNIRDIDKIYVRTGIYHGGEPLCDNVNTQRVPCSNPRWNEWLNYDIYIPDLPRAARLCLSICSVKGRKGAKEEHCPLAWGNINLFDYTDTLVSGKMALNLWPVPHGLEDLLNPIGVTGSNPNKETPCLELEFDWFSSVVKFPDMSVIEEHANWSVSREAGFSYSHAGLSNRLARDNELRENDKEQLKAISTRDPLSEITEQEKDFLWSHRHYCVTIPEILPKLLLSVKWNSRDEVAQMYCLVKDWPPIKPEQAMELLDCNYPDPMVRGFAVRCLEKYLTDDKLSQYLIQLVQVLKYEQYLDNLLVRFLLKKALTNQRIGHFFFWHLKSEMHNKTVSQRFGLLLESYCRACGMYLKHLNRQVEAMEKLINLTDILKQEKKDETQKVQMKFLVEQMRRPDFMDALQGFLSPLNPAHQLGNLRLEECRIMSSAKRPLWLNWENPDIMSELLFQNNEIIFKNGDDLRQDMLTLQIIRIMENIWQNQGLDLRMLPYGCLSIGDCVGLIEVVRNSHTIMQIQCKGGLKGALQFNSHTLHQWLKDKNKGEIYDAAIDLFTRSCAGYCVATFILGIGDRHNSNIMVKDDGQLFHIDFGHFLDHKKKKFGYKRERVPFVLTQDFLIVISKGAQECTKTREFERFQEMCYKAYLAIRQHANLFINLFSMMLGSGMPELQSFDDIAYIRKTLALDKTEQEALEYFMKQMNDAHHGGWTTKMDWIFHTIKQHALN
Take `Cc1nc(N)nc(-n2c(Nc3ccc(NC(=O)c4ccc(OC(F)(F)F)cc4)cc3)nc3ccccc32)n1`: the IC50 is 2550 nM.
For `CCNC(=S)Nc1ccc(Nc2nc3ccccc3n2-c2nc(C)nc(N)n2)cc1` the value was 470 nM; for `COCCNc1nc(C)nc(-n2c(Nc3cc[nH]n3)nc3ccccc32)n1`, 4550 nM.
Then `CNc1nc(C)nc(-n2c(Nc3cc[nH]n3)nc3ccc(-c4cncnc4)cc32)n1`, with 58.1 nM; and `COc1ccc(-c2ccc3c(c2)nc(Nc2ccn[nH]2)n3-c2nc(C)nc(N)n2)cc1CO.COc1ccc(-c2ccc3nc(Nc4ccn[nH]4)n(-c4nc(C)nc(N)n4)c3c2)cc1CO`, with 94.3 nM; and `Cc1nc(N)nc(-n2c(Nc3n[nH]c4cccc(F)c34)nc3ccccc32)n1`, with 2740 nM.
For `Cc1nc(N)nc(-n2c(Nc3ccc(NC(=O)C4CCCC4)cc3)nc3ccccc32)n1`, the half-maximal inhibitory concentration (IC50) is 1370 nM.
Regarding `Cc1nc(NC2CC2)nc(-n2c(Nc3ccn[nH]3)nc3ccccc32)n1`, the IC50 worked out at 4850 nM.
For `Cc1nc(N)nc(-n2c(Nc3ccc(NS(=O)(=O)c4ccc(F)cc4)cc3)nc3ccccc32)n1` the value was 1340 nM; for `CNc1nc(C)nc(-n2c(Nc3cc[nH]n3)nc3cc(C4=CCNCC4)ccc32)n1.CNc1nc(C)nc(-n2c(Nc3cc[nH]n3)nc3ccc(C4=CCNCC4)cc32)n1`, 4240 nM; for `Cc1nc(NC2CCOCC2)nc(-n2c(Nc3cc[nH]n3)nc3ccccc32)n1`, 17200 nM.
As for `Cc1nc(NCCO)nc(-n2c(Nc3cc[nH]n3)nc3ccccc32)n1`, the IC50 is 7260 nM. Against the preceding compound, the IC50 is about 2.4-fold lower.
Then `Cc1nc(N)nc(-n2c(NC3CCOC3)nc3ccccc32)n1` (stereo unspecified), with 3830 nM.
For `Cc1nc(NCCN2CCNCC2)nc(-n2c(Nc3cc[nH]n3)nc3ccccc32)n1` the value was 31800 nM; for `Cc1nc(N)nc(-n2c(Nc3cccc4[nH]ncc34)nc3ccccc32)n1`, 14.6 nM.
For `CNc1nc(C)nc(-n2c(Nc3ccc(NC(C)=O)cc3)nc3ccccc32)n1`, the concentration for half-maximal inhibition (IC50) was 53.1 nM.

A word on the IC50: it is the concentration at which inhibition is half-maximal.
